Reference: patent publication US20200253877A1, “GEMCABENE, PHARMACEUTICALLY ACCEPTABLE SALTS THEREOF, COMPOSITIONS THEREOF AND METHODS OF USE THEREFOR” (NEUROBO PHARMACEUTICALS, INC., priority 2018, published 2020)

Tests used:
[1] = Tablet dissolution in pH 5.0 potassium acetate, USP apparatus 2, UV/Vis fiber optic quantitation (216 nm to 230 nm); format: physicochemical; settings: film-coated Tablets D, F2, C3, ES (average n=6)
Description: Tablet's gemcabene dissolution profiles were evaluated using an ultra-violet/visible (uv/vis) light absorption methodology in which dissolved gemcabene in the dissolution media was directly measured inside the dissolution vessel. This method of analysis allowed for real-time measurement of gemcabene dissolution at multiple, closely spaced sampling intervals. This method provides a higher resolution dissolution profile than could be obtained with the HPLC analysis methodology used in Example 13 and allowed for detection of differences in dissolution characteristics between the various gemcabene calcium polymorphs. […] FIG. 56 compares the gemcabene dissolution profiles generated using these two methodologies and Table 28 reports the gemcabene dissolution profiles and % RSD for n=6 dissolution testing conducted with both methods of analysis.

[2] = test system: patients with hypercholesterolemia on stable statin therapy; experiment: 12-week placebo-controlled study of 600 mg QD in hypercholesterolemia patients on moderate and high-intensity statins: atherogenic and inflammatory biomarkers; format: in vivo, human
Description: High-risk patients including some, but not all those with heterozygous familial hypercholesterolemia (HeFH) or atherosclerotic cardiovascular disease (ASCVD) on appropriate diet and stable statin therapy for at least 12 weeks and LDL-C ≥100 mg/dL (2.59 mmol/L) and triglycerides <500 mg/dL (5.65 mmol/L) were randomized into a 12-week, placebo-controlled, parallel-group, double-blind study to assess the efficacy of gemcabene calcium salt hydrate Crystal Form 1 (PSD90=52 μm) 600 mg (300-mg film-coated Tablet D×2) QD on LDL-C and other lipoproteins and hsCRP (high-sensitivity C-reactive protein). Safety and tolerability were also evaluated. The patients were stratified by high- or moderate-intensity statin therapy, with or without ezetimibe, with a target of 52 patients (26 patients on 600 mg gemcabene calcium salt hydrate Crystal Form 1 as administered by 2×film-coated Tablet D and 26 patients on placebo (“placebo”)) in each stratum. […] Mean baseline LDL-C for all patients was approximately 134 mg/dL (3.48 mmol/L) with most patients in the high-intensity statin stratum on atorvastatin and most patients in the moderate-intensity stratum on either simvastatin or atorvastatin.
The aim of this study was to characterize gemcabene calcium salt hydrate Crystal Form 1's safety and tolerability and to determine gemcabene calcium salt hydrate Crystal Form 1's additive impact to statins on serum biomarker including atherogenic biomarkers (LDL-C, non-HDL-C, ApoB, ApoE, and triglyceride (TG)) and inflammatory biomarkers (hsCRP, serum amyloid A (SAA)).
Fifty patients (24 patients on 600 mg (Tablet D×2); 26 placebo) on baseline high-intensity (HI) statins received atorvastatin 40 mg or 80 mg QD; or rosuvastatin 20 mg or 40 mg QD. Fifty-five patients (29 patients on 600 mg GEM; 26 placebo) on baseline moderate-intensity (MI) statins received atorvastatin 10 mg or 20 mg QD; rosuvastatin 5 mg or 10 mg QD; or simvastatin 20 or 40 mg QD. Baseline LDL-C was 127 mg/dL and 134 mg/dL in the MI statin and HI statin stratum, respectively.
Within the study population, an analysis was performed in a subpopulation of patients having mixed dyslipidemia (LDL-C ≥100 mg/dL and triglycerides ≥200 and <500 mg/dL). Eighteen patients (10 (film-coated Tablet D×2) patients and 8 placebo patients) having a baseline mean LDL-C level of 142 mg/dL, baseline mean triglyceride level of 247 mg/dL and BMI of 34 kg/m^2 were analyzed (FIG. 48). Although not measured in the subpopulation of this Example, some cardiometabolic patients could have elevated sulphatase-2 (Sulf-2) levels, which are believed to cause reduced Syndecan-1 (also known as “remnant receptor”)-mediated clearance of atherogenic remnant lipoproteins. Without being bound by theory, the data shown in FIG. 48 support the inventors' belief that administration of film-coated Tablet D, which comprises a compound of the invention, rescues remnant receptor activity.

[3] = Steady-state gemcabene pharmacokinetics in familial hypercholesterolemia patients (300, 600, 900 mg/day); format: in vivo, human; settings: for Tlast: after 28 daily oral doses (film-coated Tablet D), FH patients, median
Description: Additional (trough) samples were collected pre-dose on Day 14, Day 42, Day 70, and at the Early Termination Visit (if applicable). Plasma from these samples were analyzed for gemcabene concentrations and the data used for PK analysis. […] PK parameter estimates were derived by standard non-compartmental analysis methods using a validated installation of Phoenix® WinNonlin® version 6.4. The actual sampling times were used in the PK parameter calculations. All plasma concentrations reported as missing were treated as missing. […] The following gemcabene PK parameters were calculated for each patient from the plasma concentration-time data: AUClast and AUC(0-24) were calculated by numeric integration using the trapezoidal rule with linear up and log down interpolation. […] The individual patient and gemcabene concentration-time data are listed using the number of significant digits or decimal places provided by the bioanalytical lab and nominal sample times, and summarized descriptively in tabular formats by dose level, and visit (for trough samples).

[4] = Steady-state plasma gemcabene pharmacokinetics (600 mg daily) in healthy female subjects; format: in vivo, human
Description: An open-label, two-sequence, cross-over study to assess the steady-state effects of gemcabene calcium on the single-dose pharmacokinetics (PK) of oral contraceptive tablets in healthy female subjects was conducted with 300 mg tablets containing gemcabene calcium salt hydrate Crystal Form 1 having PSD90 of 52 μm (film-coated Tablet F).
The population for this study was generally healthy, adult female subjects of childbearing potential (≥18 to ≤35 years of age). This population supports the overall objective of the study to evaluate the effect of 600 mg of gemcabene calcium salt hydrate Crystal Form 1 having PSD90 of 52 μm at steady-state on the PK of a single dose of ON 1/35 (Ortho Novum 1/35; combined ethinyl estradiol/norethindrone oral contraceptive). The primary objective of this study was to assess the effect of daily 600 mg of gemcabene calcium salt hydrate Crystal Form 1 having PSD90 of 52 μm at steady-state on the pharmacokinetics (PK) of ON 1/35. The secondary objectives of this study were to assess the safety and tolerability of daily gemcabene 600 mg in combination with a single-dose ON 1/35 and to assess the steady-state PK of 600 mg of gemcabene calcium salt hydrate Crystal Form 1 having PSD90 of 52 μm (film-coated Tablet F×2). […]

[5] = patients with mixed dyslipidemia, 600 mg QD on statins (FIG. 48)
[6] = 300-900 mg/day, dose proportionality
[7] = dose range 300 mg/day to 900 mg/day

Row | Compound | gemcabene dissolution rate of film-coated tablets, compared among polymorphs [1] | atherogenic and inflammatory markers ([2]; hypercholesterolemia patients on MI and HI statins, 600 mg QD, 12 weeks) | reduction in ApoB [2, 5] | reduction in ApoE [2, 5] | reduction in LDL-C [2, 5] | reduction in TG [2, 5] | reduction in non-HDL-C [2, 5] | Tlast ([3]; 300 mg/day, n = 8) | Tlast ([3]; 600 mg/day, n = 8) | Tlast ([3]; 900 mg/day, n = 7) | upper limit of the 95% CI of slope, log AUClast vs log dose [3, 6] | upper limit of the 95% CI of slope, log Cmax vs log dose [3, 6] | time to attain steady state ([3]; daily dosing, individual trough concentrations) | AUC(0-24) dose proportionality [3, 7] | Cmax dose proportionality [3, 7] | mean Cmin [4]
1 | CC(C)(CCCCOCCCCC(C)(C)C(=O)O)C(=O)O.[Ca] [6-(5-Carboxy-5-methyl-hexyloxy)-2,2-dimethylhexanoic acid calcium] | intermediate profile | significant reductions | 26% | 34% | 23% | 33% | 19% | – | – | – | – | – | – | – | – | –
2 | CC(C)(CCCCOCCCCC(C)(C)C(=O)O)C(=O)O [gemcabene, 6-(5-carboxy-5-methyl-hexyloxy)-2,2-dimethyl-hexanoic acid] | – | – | – | – | – | – | – | 25.2 h | 24.6 h | 23.8 h | 0.9993 | 0.9767 | ≤ 14 days | increased dose proportionally | slightly less than dose proportional | 102.68 µg/mL
